In US20250152633A1, “CELLS HAVING IMPROVED PROLIFERATIVE CAPACITY AND REDUCED CELLULAR SENESCENCE” (BOARD OF REGENTS, THE UNIVERSITY OF TEXAS SYSTEM, priority 2023, published 2025):
“Also recorded” adds a separate entry of the source. Like-named read-outs stand apart in the source and are kept apart here. Bridge positions count the residues as written; N and C are the ends. Ends that are not written are not given here.

Columns and labels:
[1] = test system: MSCs from young donors; conditions: 1 μM inhibitor as cotreatment with brachial loading; cited from earlier work
[2] = test system: MSCs from an aged donor one; assay: Western blotting of protein expression after treatment of MSCs; format: cell-based, human; conditions: for SIRT6 expression (Western blotting): brachial+NAC (5 mM) or KU55933 (5 μM) treatment; for DNA damage repair protein KU80 expression (Western blotting): brachial+NAC (5 mM) or brachial+KU55933 (5 μM), compared to control groups
Protocol: (§1) Application of biomechanical treatment. Mechanical strain was applied to cell culture using a high throughput system described previously (Lee et al., 2013; Lee & Baker, 2015; Lee et al., 2020). Briefly, cells are cultured on custom made plates that are mounted on a system that applies strain. The cell culture plates were comprised of silicone membranes (0.005″ thickness; Specialty Manufacturing, Inc.) that are sandwiched between two plates, with silicone rubber gaskets at the interfaces to prevent leaking. These cell culture membranes are UV sterilized and coated with 50 μg/mL fibronectin overnight at 37° C. to allow cell adhesion. After cell attachment, the plates are mounted on to the top plate of the system using screws. To apply mechanical strain, a platen with 36 Teflon pistons is moved into the cell culture membrane. The motion is driven by a hygienically sealed, voice coil-type linear motor (Copley Controls). The platen is stabilized using six motion rails mounted with linear motion bearings. The hygienically sealed motor housing has chilled water running through in order to prevent overheating during operation. Unless otherwise specified, loading was applied for 4 hours per day for 7 days with or without 1 μm the EGFR/ErbB-2/ErbB-4 Inhibitor (CAS 881001-19-0; Table 3).
Cell lysis and immunoblotting. Following the treatments, the cells were lysed in 20 mM Tris with 150 mM NaCl, 1% Triton X-100, 0.1% SDS, 2 mM sodium orthovandate, 2 mM PMSF, 50 mM NaF and a protease inhibitor cocktail (Roche, Inc.). The proteins were separated on a NuPAGE 10% bis-tris midi gel (Novex) and transferred to nitrocellulose membrane using iBlot transfer stack (Novex). The membranes were blocked for one hour in 5% non-fat milk in PBS with 0.01% tween-20 (PBST). After washing twice in PBST, cells were incubated with primary antibodies (Table 1) overnight in 1% non-fat milk at 4° C. The membranes were washed with PBST and incubated at room temperature for two hours with secondary antibody. The membrane was treated with chemiluminescent substrate (SuperSignal West Femto; Thermo Fisher Scientific, Inc.) then imaged using a digital imaging system (Cell Biosciences, Inc.).
(§2) Conditioning of hMSCs using biochemical factors. For mechanistic experiments involving chemical factors and biological inhibitors, cells were incubated with the chemical treatments as shown in Table 3. The cells were treated with mechanical loading for 4 hours/day under brachial waveform at 0.1 Hz and 7.5% maximum strain or cultured under static conditions. The culture media containing the treatments were replaced on day 3 and day 5 for all 7-day treatments.

[3] = test system: MSCs from aged donors; assay: BrdU proliferation assay (DNA synthesis) after mechanical and chemical treatment; format: cell-based, human; conditions: for DNA synthesis (BrdU assay): co-treatment with brachial loading, 5 μM KU55933 or 5 mM NAC, aged donor MSCs, vs. static control
Protocol: Cell lines and cell culture. Human mesenchymal stem cells (Promocell) were cultured in low glucose DMEM medium supplemented with 15% fetal bovine serum, L-glutamine and penicillin/streptomycin. Following trypsinization, cells were seeded on the membranes at 20,000 cells per cm^2 before mechanical loading. The cells were used between passages 4-6, unless otherwise specified. The MSCs were derived from a donor 1, unless otherwise specified. A subset of the studies were performed using MSCs from donor 2, or donor 3, or donor 4. A subset of the studies used MSCs derived from a young, healthy donor. Human umbilical vein endothelial cells (HUVECs; PromoCell GmbH) were cultured in MCDB 131 medium supplemented with 7.5% fetal bovine serum, L-glutamine and penicillin/streptomycin and EGM-2 SingleQuot Kit (Thermo Fisher Scientific, Inc.). All cells were cultured in an incubator at 37° C. under a 5% CO2 atmosphere.
as §1, with “The hygienically sealed motor housing has chilled water running through in order to prevent overheating during operation. Unless otherwise specified, loading was applied for 4 hours per day for 7 days with or without 1 μm the EGFR/ErbB-2/ErbB-4 Inhibitor (CAS 881001-19-0; Table 3).” left out
BrdU Proliferation Assay. […] Absorbance was read at 450 nm using a FlexStation-3 plate reader (Molecular Devices). […]

[4] = test system: MSCs from three young, healthy donors; assay: RNA-seq analysis of senescence-related gene sets; format: cell-based, human; conditions: brachial loading and E/E inhibitor; young donor MSCs; age-, oncogenic-, stress-, developmental- and inflammation-related senescence gene sets
Protocol: To investigate the treatments' effects on gene expression patterns that are correlated with senescence in MSCs, MSCs were obtained from three young, healthy donors, and conditioned with brachial loading and E/E inhibitor. Following the treatments, RNA-seq analysis was performed on the cells, and the expression of several key gene sets related to various mechanisms of senescence in MSCs was evaluated. These gene sets were identified through a thorough investigation of the literature as key mediators of MSC senescence, and the expression pattern of each gene as it pertains to MSC senescence was documented (Zhou et al., 2020; Brandl et al., 2011; Turinetto et al., 2016; Ozkul & Galderisi, 2016; Fridman & Tainsky, 2008; Ki et al., 2014; Cakouros & Gronthos, 2019; Peffers et al., 2016). […] Next, a gene set enrichment analysis (GSEA) was performed on the RNA-seq data. […] In all three senescence-related gene sets, a reduction in senescence related genes with brachial mechanical loading was observed (FIG. 1).
RNA Sequencing and Analysis. […] For sequencing, single reads of 50 base pairs were performed after poly-A mRNA capture using the Poly(A) Tailing Kit (Ambion) and Ultra II Directional RNA Library Prep Kit (NEB) to isolate mRNA and perform dUTP directional preparation of the mRNA library. […]

[5] = test system: MSCs from young donors; conditions: 1 μM inhibitor as cotreatment with brachial loading, tube formation assay, cited from earlier work
[6] = test system: MSCs from an aged donor; assay: p-γ-H2AX DNA double-strand break repair foci immunostaining; format: cell-based, human; conditions: for p-γ-H2AX foci, treatment of static control cells vs. static treatment alone: 4 hours static, 3 μM GsMTx4, 2 μM Dooku 1
Protocol: Immunocytochemical staining on silicone membranes. Following the treatments, the cells were fixed in 4% paraformaldehyde in PBS for 10 minutes followed by washing and permeabilization with 0.1% Triton X-100 PBS for 5 minutes. Next, samples were blocked with PBS containing 5% FBS and 1% BSA for 40 minutes. After washing, cells were incubated with primary antibodies (see Table 2 for specific antibodies and concentrations) in PBS with 1% BSA overnight at 4° C. The samples were then washed twice in PBS with 1% BSA and incubated with secondary antibodies in PBS with 1% BSA for 2 hours in a light protected environment. Cells treated with extensive washes with PBS with 1% BSA prior to mounting in anti-fade media (Vector Laboratories, Inc.). The samples were then imaged using confocal microscopy with a LSM 710 laser scanning confocal microscope (Carl Zeiss, Inc.).
p-γ-H2AX Foci Analysis. Following confocal imaging, images were analyzed with FIJI software to count p-γ-H2AX histone foci. Three-dimensional image stacks were maximum intensity projected to generate two-dimensional images with 12-bit range of 0-4095. Background signal outside of nuclei boundaries was measured and subtracted from the image. Individual cell nuclei regions of interest were selected, and an intensity threshold of 300 bits was applied. The Analyze Particle plugin was applied to count the p-γ-H2AX foci in each nucleus, with a minimum particle size of 0.5 μm applied. At least 100 individual cell nuclei were analyzed for each treatment group to calculate the mean foci count per cell, mean foci count per nuclear area, and standard errors.
as §2

[7] = test system: aged MSCs; assay: β-Galactosidase staining of senescent cell phenotypes; format: cell-based, human; conditions: 5 mM NAC or 5 μM KU55933, with or without brachial loading; vs. static control
Protocol: Conditioning of hMSCs using biochemical factors. For mechanistic experiments involving chemical factors and biological inhibitors, cells were incubated with the chemical treatments as shown in Table 3. The cells were treated with mechanical loading for 4 hours/day under brachial waveform at 0.1 Hz and 7.5% maximum strain or cultured under static conditions. The culture media containing the treatments were replaced on day 3 and day 5 for all 7-day treatments. β-Galactosidase Analysis. Following the treatments, cell culture media was removed, and cells were washed once with PBS. Cells were fixed and stained for β-Galactosidase following the protocol of the Senescence β-Galactosidase Staining Kit (Cell Signaling Technologies). Following staining, cells were stored with 70% glycerol and imaged using a light microscope (Meiji, Inc.). Images were post-processed in Adobe Photoshop to increase image contrast and visibility of β-Galactosidase+ cells. Total cells and β-Galactosidase+ cells were manually counted in FIJI, with at least 1,000 cells counted per treatment group.

CC#CC(=O)Nc1cc2c(Nc3ccc(F)c(Cl)c3)ncnc2cn1 [E/E inhibitor]
MSCs that expressed the markers for both endothelial cells and pericytes [1]: dramatic increase
expression of antioxidant enzyme SOD1 (Western blotting) ([2]; brachial loading and E/E inhibitor treatments, aged donor one MSCs): significantly upregulated expression
oxidative stress signaling protein expression, FOX0 transcription factors (Western blotting) ([2]; brachial+E/E inhibitor, 4 hours per day for 7 days, aged donor one MSCs, vs. static control): upregulation of FOX01, p-FOX01, FOX03a, p-FOX03a, and p-FOX04
Sirtuin protein expression (Western blotting) ([2]; brachial+E/E treatment, donor one MSCs, in comparison to static control): upregulation of p-SIRT1, SIRT6, and SIRT7
DNA synthesis (BrdU proliferation assay) ([3]; brachial loading 7.5% strain, 4 hours per day for 7 days + 1 μM E/E inhibitor, MSCs from three donors (68-92 years), relative to static control): increased DNA synthesis in two of three donor lines
senescence-related gene expression patterns (RNA-seq) [4]: reversed the effects implicated by senescence
angiogenic activity / angiogenic properties of MSCs ([5]; listed as EGFR/ErbB-2/4 (E/E) inhibitor): enhanced angiogenic activity
angiogenic activity / angiogenic properties of MSCs ([5]; listed as EGFR/ErbB-2/4 (E/E)): synergistically enhances the angiogenic properties

CC(Nc1nc(N2CCCC2)nc2ccccc12)c1ccccc1 (stereo not drawn) [Importazole]
p-γ-H2AX foci, co-treatment with brachial loading vs. brachial loading alone ([6]; 4 hours brachial loading, 40 μM Importazole): significantly more p-γ-H2AX foci than treatment with brachial loading alone

O=c1cc(-c2cccc3c2Sc2ccccc2S3)oc(N2CCOCC2)c1 [KU55933]
SIRT6 expression (Western blotting) ([2]; vs. static control): no significant change
DNA damage repair protein KU80 expression (Western blotting) [2]: remained statistically unchanged
DNA synthesis (BrdU assay) [3]: significantly higher DNA synthesis

CC(=O)N[C@@H](CS)C(=O)O [NAC, N-acetyl-L cysteine]
SIRT6 expression (Western blotting) ([2]; vs. static control): significant upregulation
DNA damage repair protein KU80 expression (Western blotting) [2]: remained statistically unchanged
DNA synthesis (BrdU assay) [3]: not under brachial+NAC treatment; also recorded: a reduction of proliferative enhancement was observed
percentage of β-galactosidase+ cells [7]: significant reduction

Dooku1
p-γ-H2AX foci, treatment of static control cells vs. static treatment alone [6]: significantly more p-γ-H2AX foci than static treatment alone

GsMTx4: directly inhibits Piezo1 channel activity (Tocris 4912) (GCLEFWWKCNPNDDKCCRPKLKCSKLFKLCNFSF; disulfide 16-30, 2-17, 9-23; not fully specified (C-terminus); ends not checked; UniProt Q7YT39 47-80, looked up)
p-γ-H2AX foci, treatment of static control cells vs. static treatment alone [6]: significantly more p-γ-H2AX foci than static treatment alone
